Values of other authors, collected in patent US20060004050A1, “Compositions and methods for the prevention or treatment of pain and other nervous system disorders” (priority 2004, published 2006).

Assays:
[1] = tested on: spinal cord and descending neural pathways; conditions: rats
[2] = tested on: spinal nerve root action potentials; conditions: cats
[3] = tested on: calcium current of snail neurons
[4] = in vivo
[5] = in vivo; remark: listed apart in the source
[6] = rat
beta-adrenergic = conditions: L-form versus D-enantiomer

SMILES: Cc1ccc(C(=O)C(C)CN2CCCCC2)cc1 (racemic) [Tolperisone, 2,4′-dimethyl-3-piperidino-propiophenone]
- effect on segmental (limb) reflexes [1]: depress segmental (limb) reflexes
- effect on ventral nerve root reflexes and dorsal nerve root reflex [2]: dose-dependently inhibit both ventral nerve root reflexes and the dorsal nerve root reflex
- effect on calcium current [3]: inhibit calcium current dose-dependently
- most serious adverse effect [4]: anaphylaxis
- other frequently reported adverse effects [4]: muscle weakness, muscle pain, headache, dizziness, and gastric complaints
- membrane effect (tissue membrane): tissue membrane stabilizing properties

SMILES: O=C1CCC(N2C(=O)c3ccccc3C2=O)C(=O)N1 (single isomer, unassigned) [D-enantiomer of thalidomide, thalidomide]
- effect when prescribed for morning sickness during pregnancy [5]: safe and effective sedative

SMILES: O=C1CCC(N2C(=O)c3ccccc3C2=O)C(=O)N1 (single isomer, unassigned) [L-enantiomer of thalidomide, thalidomide]
- effect when prescribed for morning sickness during pregnancy [5]: potent teratogen

SMILES: Cc1ccc(C(=O)C(C)CN2CCCCC2)cc1 (single isomer, unassigned; (+)) [(+)-tolperisone]
- pharmacodynamic property of the isomer [6]: more muscle-relaxant properties

SMILES: Cc1ccc(C(=O)C(C)CN2CCCCC2)cc1 (single isomer, unassigned; (-)) [(−)-tolperisone]
- pharmacodynamic property of the isomer [6]: vasodilatory activity

SMILES: CC(C)NCC(O)COc1cccc2ccccc12 (centres unmarked) [propranolol]
- potency relative to the D-enantiomer (beta-adrenergic): 100 times
